ChEMBL document CHEMBL3872258, “Challenges in the development of an M4 PAM in vivo tool compound: The discovery of VU0467154 and unexpected DMPK profiles of close analogs” (Bioorg Med Chem Lett, 2017)

Experiments:
[1] = Inhibition of human adenosine transporter assessed as reduction in [3H]-adenosine uptake
[2] = Binding affinity to rat brain GABA receptor by radio-ligand binding assay
[3] = target: Growth hormone secretagogue receptor type 1 (Homo sapiens, UniProt Q92847); assay: Inhibition of ghrelin receptor (unknown origin) by radioligand binding assay
Sequence of Growth hormone secretagogue receptor type 1 (Q92847 whole entry): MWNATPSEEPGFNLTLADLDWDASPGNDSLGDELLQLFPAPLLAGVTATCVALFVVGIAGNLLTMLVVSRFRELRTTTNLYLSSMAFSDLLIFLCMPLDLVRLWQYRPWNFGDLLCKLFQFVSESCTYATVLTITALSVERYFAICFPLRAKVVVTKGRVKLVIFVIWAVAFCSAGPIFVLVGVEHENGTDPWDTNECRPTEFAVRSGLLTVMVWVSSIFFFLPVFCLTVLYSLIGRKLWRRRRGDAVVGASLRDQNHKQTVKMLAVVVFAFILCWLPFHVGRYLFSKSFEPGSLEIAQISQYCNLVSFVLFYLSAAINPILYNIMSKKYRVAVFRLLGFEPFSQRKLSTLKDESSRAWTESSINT

Row | SMILES | IC50 [1] [nM] | IC50 [2] [nM] | IC50 [3] [nM]
1 | Cc1nnc2sc(C(=O)NCc3ccc(S(=O)(=O)C(F)(F)F)cc3)c(N)c2c1C | 240 |  | 
2 | Cc1nnc2sc(C(=O)NCc3ccc(S(F)(F)(F)(F)F)cc3)c(N)c2c1C |  | 2100 | 6500
